Laboratory results taken from PMC12311865, “In Vitro Evaluation of the Potential Interactions of Zearalenone-14-sulfate and Zearalenone-14-glucuronide with Human Cytochrome P450 Enzymes, Organic Anion Transporting Polypeptides, and ATP-Binding Cassette Multidrug Transporters” (ACS Omega, 2025).
Where two headings read alike, the source gives them in different places.

Tests used:
CYP3A4 = biological target: T1, CYP3A4 (Homo sapiens, UniProt P08684); assay: in vitro; format: biochemical; conditions: testosterone 5 μM
T1 construct: purchased Merck
Text: Testosterone and 6β-hydroxytestosterone were detected at 240 nm.

human MRP2 = biological target: T2, human MRP2 (Homo sapiens, UniProt Q92887); assay: biochemical; format: biochemical; conditions: CDCF 5 μM
T2 construct: made in house; host or cells: Sf9 insect cells (baculovirus)
Description: Experiments were performed in insect membrane vesicles, as described previously. Briefly, human MDR1, BCRP, and MRP2 were expressed in Sf9 insect cells by baculoviruses. On the third day of infection, cells were collected and membrane vesicles were obtained by mechanical disruption and differential centrifugation. To get full activity for BCRP, the cholesterol levels of the vesicles were adjusted to the level of mammalian membranes. Vesicles were stored at −80 °C, and the total protein content of the preparations was measured by the Lowry method (used as a reference for the quantity). […] A 100 μL volume of fluorescence stabilizer was added to the samples (DMSO for LY, 0.1 M H2SO4 for NMQ, and 0.1 M NaOH for CDCF). Fluorescence of samples was measured by plate readers (Victor X3 and Enspire PerkinElmer; Waltham, MA) at appropriate wavelengths (filters in the Victor X3 reader were 405/535 nm for LY and 492/635 nm for CDCF; while in the Enspire reader, NMQ was measured at 360/430 nm excitation/emission wavelengths). ABC-related transport was calculated by subtracting passive uptake measured without Mg-ATP from values measured in the presence of Mg-ATP.

OATP1B3 = biological target: T3, OATP1B3 (Homo sapiens, UniProt Q9NPD5); assay: OATP1B3-mediated pyranine uptake in overexpressing A431 cells; format: cell-based
T3 construct: expressed in transfected cells; host or cells: A431
T3 sequence (Q9NPD5 1-702): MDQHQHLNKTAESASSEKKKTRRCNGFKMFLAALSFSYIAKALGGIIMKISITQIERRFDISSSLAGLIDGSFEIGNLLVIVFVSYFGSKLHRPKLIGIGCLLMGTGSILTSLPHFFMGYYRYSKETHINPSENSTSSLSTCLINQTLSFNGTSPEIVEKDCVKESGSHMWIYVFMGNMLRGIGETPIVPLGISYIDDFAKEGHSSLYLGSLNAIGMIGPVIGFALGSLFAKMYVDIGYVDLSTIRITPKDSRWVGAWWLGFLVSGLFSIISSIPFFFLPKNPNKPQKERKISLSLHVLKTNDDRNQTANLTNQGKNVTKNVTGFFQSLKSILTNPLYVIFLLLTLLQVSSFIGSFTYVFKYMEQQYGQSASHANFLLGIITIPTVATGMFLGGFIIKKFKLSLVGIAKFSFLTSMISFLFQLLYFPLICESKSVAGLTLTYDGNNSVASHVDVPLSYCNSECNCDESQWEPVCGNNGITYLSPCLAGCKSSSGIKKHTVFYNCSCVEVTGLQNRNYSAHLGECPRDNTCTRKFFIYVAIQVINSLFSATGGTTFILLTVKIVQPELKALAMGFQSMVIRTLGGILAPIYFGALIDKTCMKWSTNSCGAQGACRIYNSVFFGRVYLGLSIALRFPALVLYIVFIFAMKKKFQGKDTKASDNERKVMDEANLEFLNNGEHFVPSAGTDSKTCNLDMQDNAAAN
Description: The human epidermoid carcinoma cell (A431) overexpressing OATP1A2, OATP1B1, OATP1B3, or OATP2B1 transporters and their mock control cells were generated previously as described. , Cell culture was maintained in DMEM supplemented with 10% fetal bovine serum, 2 mM L-glutamine, 100 units/mL penicillin, and 100 μg/mL streptomycin at 37 °C and 5% CO2.
The inhibitory effects of mycotoxins (Z14S and Z14GA) were examined using indirect fluorescence assays, where pyranine and SR101 were used as fluorescent substrates. , A431 cells overexpressing OATP1A2, OATP1B1/3, or OATP2B1 and their mock-transfected controls were seeded at a density of 8 × 10^4 cells/well onto 96-well plates and incubated for 18–22 h prior to transport measurements. The next day, plated cells were washed three times with 200 μL of PBS (phosphate-buffered saline, pH 7.4) and preincubated with 50 μL of transport buffer (pH 5.5; 125 mM NaCl, 4.8 mM KCl, 1.2 mM CaCl2, 1.2 mM KH2PO4, 12 mM MgSO4, 25 mM MES, and 5.6 mM glucose) with or without increasing concentrations of the mycotoxins tested (0.001–20 μM) for 5 min at 37 °C. The transport inhibition measurements were initiated by adding 50 μL of transport buffer containing the proper fluorescent substrate SR101 (0.5 μM, OATP1A2) or pyranine (10 μM for OATP1B1 or 20 μM for OATP1B3 and OATP2B1). After 10 min (OATP1A2), 15 min (OATP1B1 and OATP2B1), or 30 min (OATP1B3) incubation, the transport was terminated by washing the cells three times with ice-cold PBS. […] Using an Enspire plate reader (PerkinElmer, Waltham, MA), the fluorescence was measured at excitation/emission wavelengths of 460/510 nm (pyranine) or 586/605 nm (SR101).
OATP-mediated transport was obtained by subtracting the activity of the mock control cells from the activity of the OATP-expressing cells. The transport activity (%) of the OATPs was calculated by comparing the fluorescence signal obtained in the absence of the compounds tested (set to 100%).

T2 sequence (Q92887 whole entry): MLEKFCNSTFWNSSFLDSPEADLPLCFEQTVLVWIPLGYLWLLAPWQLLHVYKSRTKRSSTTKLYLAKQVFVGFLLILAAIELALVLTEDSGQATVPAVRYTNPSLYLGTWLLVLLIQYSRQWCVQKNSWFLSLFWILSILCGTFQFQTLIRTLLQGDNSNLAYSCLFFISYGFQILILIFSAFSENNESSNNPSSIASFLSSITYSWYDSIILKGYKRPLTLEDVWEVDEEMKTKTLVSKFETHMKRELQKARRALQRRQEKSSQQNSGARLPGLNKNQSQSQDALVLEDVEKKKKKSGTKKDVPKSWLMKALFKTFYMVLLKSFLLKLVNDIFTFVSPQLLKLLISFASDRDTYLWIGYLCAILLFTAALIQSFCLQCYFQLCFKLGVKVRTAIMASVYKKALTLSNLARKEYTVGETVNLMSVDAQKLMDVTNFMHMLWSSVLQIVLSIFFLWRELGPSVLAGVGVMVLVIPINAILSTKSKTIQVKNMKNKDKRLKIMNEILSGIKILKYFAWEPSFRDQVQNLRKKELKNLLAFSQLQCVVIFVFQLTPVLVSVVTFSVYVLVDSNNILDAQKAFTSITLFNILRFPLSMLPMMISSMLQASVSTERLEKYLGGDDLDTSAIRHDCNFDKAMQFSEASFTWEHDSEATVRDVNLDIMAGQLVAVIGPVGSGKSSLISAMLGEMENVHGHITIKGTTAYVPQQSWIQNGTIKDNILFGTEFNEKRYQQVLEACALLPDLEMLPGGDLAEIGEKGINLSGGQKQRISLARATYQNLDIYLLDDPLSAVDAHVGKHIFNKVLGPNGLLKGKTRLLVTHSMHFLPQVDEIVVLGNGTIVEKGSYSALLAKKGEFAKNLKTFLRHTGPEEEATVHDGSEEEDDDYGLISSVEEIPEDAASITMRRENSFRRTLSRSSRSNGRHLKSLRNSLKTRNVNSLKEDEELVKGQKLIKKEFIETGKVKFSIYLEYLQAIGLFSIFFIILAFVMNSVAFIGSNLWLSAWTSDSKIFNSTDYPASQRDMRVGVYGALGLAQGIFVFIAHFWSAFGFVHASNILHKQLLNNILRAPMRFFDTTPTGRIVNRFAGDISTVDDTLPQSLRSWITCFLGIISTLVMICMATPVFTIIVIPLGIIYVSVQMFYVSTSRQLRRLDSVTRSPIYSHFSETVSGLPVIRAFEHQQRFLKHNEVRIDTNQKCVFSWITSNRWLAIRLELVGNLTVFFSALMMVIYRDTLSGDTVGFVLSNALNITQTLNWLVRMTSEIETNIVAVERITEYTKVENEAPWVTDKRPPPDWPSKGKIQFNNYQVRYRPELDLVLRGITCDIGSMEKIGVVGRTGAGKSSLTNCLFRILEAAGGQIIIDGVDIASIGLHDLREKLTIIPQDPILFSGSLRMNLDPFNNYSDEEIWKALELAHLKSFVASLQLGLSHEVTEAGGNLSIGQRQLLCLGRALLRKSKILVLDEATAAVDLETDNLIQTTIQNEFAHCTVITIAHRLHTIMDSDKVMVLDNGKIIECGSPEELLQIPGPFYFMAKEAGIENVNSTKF
T1 sequence (P08684 whole entry): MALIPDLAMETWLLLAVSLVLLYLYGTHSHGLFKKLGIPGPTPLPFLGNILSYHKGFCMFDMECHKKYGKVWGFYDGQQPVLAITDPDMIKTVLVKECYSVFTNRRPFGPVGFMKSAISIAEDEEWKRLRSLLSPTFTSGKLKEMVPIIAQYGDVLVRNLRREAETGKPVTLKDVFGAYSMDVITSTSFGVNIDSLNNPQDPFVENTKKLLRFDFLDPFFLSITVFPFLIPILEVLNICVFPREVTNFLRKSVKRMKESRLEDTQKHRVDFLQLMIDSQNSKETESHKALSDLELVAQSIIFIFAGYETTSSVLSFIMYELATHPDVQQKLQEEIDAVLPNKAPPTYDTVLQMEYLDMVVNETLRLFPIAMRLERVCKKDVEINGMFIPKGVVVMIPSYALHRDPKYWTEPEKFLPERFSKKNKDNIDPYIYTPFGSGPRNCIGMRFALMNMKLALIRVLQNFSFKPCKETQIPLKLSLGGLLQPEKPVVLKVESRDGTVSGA

| Structure (SMILES) | inhibition at 180 min, 20 μM (CYP3A4; human, pH 7.5, each 20 μM, read-out: inhibition of CYP3A4 (decrease in metabolite formation)) | effect on MRP2-dependent transport of CDCF (human MRP2; 0–50 μM) | IC50 (OATP1B3) | decrease in OATP1B3 transport activity (OATP1B3; 20 μM, pyranine substrate, A431 cells) | inhibition of CYP3A4 (decrease in metabolite formation) (CYP3A4; each 20 μM, 180 min) | IC50 (human MRP2; Sf9 membrane vesicles, read-out: IC50 for MRP2-mediated CDCF transport) | IC50 (OATP1B3; pyranine 20 μM, 30 min, A431 cells, read-out: IC50 for OATP1B3) |
| --- | --- | --- | --- | --- | --- | --- | --- |
| C[C@H]1CCCC(=O)CCC/C=C/c2cc(OS(=O)(=O)O)cc(O)c2C(=O)O1 [Z14S, zearalenone-14-sulfate] | ~45% | weak inhibitory effect | 2.3 µM | 80–100% |  |  |  |
| C[C@H]1CCCC(=O)CCC/C=C/c2cc(O[C@@H]3O[C@H](C(=O)O)[C@@H](O)[C@H](O)[C@H]3O)cc(O)c2C(=O)O1 [Z14GA, Zearalenone-14-glucuronide] |  |  |  |  | no effects | > 10 µM | > 20 µM |
